Laboratory results from PubChem BioAssay AID1963975 (Molecular Pharmacology Branch, DTP, NCI, 2024).
Each block holds one molecule with its values, some of them ahead of it.

System: 624824-186-R-J2-PDC multicell spheroids, viability
Experiment: Anticancer human tumor 624824-186-R-J2-PDC patient-derived colon adenocarcinoma cell line growth inhibition [PI3K]
Conditions: for IC50: curve of first compound; for viability, T/C: stronger effect = lower value
Outline: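 Stroma-containing spheroids: tumor line, pooled-donor HUVEC, hMSC. Treatments: targeted agents with PI3K inhibitors. Dosing: clinically relevant, half-log spacing, 10 microM ceiling without known Cmax. Read-out: cell viability.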

[1] = second compound 0.0316 µM, first compound 0.0316 µM
[2] = second compound 0.0316 µM, first compound 0.1 µM
[3] = second compound 0.1 µM, first compound 0.0316 µM
[4] = second compound 0.1 µM, first compound 0.1 µM
[5] = second compound 0.316 µM, first compound 0.0316 µM
[6] = second compound 0.316 µM, first compound 0.1 µM
[7] = second compound 1 µM, first compound 0.0316 µM
[8] = second compound 1 µM, first compound 0.1 µM
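Also: spheroids exposed to agents for 7 days before viability read.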
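For viability, T/C in this document: 100% = DMSO vehicle treated spheroids.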

IC50 (second compound 0.00316 µM): > 100 nM | IC50 (second compound 0.01 µM): > 100 nM | IC50 (second compound 0.0316 µM): > 100 nM | IC50 (second compound 0.1 µM): > 100 nM | IC50 (second compound 0.316 µM): > 100 nM | IC50 (second compound 1 µM): > 100 nM
Compound: Cn1ncnc1[C@H]1c2n[nH]c(=O)c3cc(F)cc(c23)N[C@@H]1c1ccc(F)cc1 + COc1c(OCCCN2CCOCC2)ccc2c3n(c(=NC(=O)c4cnc(N)nc4)nc12)CCN3
viability, T/C (second compound 0.00316 µM, first compound 0.000316 µM): 93.9% | viability, T/C (second compound 0.00316 µM, first compound 0.001 µM): 83.3% | viability, T/C (second compound 0.00316 µM, first compound 0.00316 µM): 96.7% | viability, T/C (second compound 0.00316 µM, first compound 0.01 µM): 72% | viability, T/C (second compound 0.00316 µM, first compound 0.0316 µM): 88.8% | viability, T/C (second compound 0.00316 µM, first compound 0.1 µM): 78.4% | viability, T/C (second compound 0.01 µM, first compound 0.000316 µM): 94.2% | viability, T/C (second compound 0.01 µM, first compound 0.001 µM): 81.2% | viability, T/C (second compound 0.01 µM, first compound 0.00316 µM): 79.8% | viability, T/C (second compound 0.01 µM, first compound 0.01 µM): 84.5% | viability, T/C (second compound 0.01 µM, first compound 0.0316 µM): 93.3% | viability, T/C (second compound 0.01 µM, first compound 0.1 µM): 77.7% | viability, T/C (second compound 0.0316 µM, first compound 0.000316 µM): 90.2% | viability, T/C (second compound 0.0316 µM, first compound 0.001 µM): 81.9% | viability, T/C (second compound 0.0316 µM, first compound 0.00316 µM): 84.1% | viability, T/C (second compound 0.0316 µM, first compound 0.01 µM): 83.1% | viability, T/C [1]: 88% | viability, T/C [2]: 95.6% | viability, T/C (second compound 0.1 µM, first compound 0.000316 µM): 72.2% | viability, T/C (second compound 0.1 µM, first compound 0.001 µM): 77.4% | viability, T/C (second compound 0.1 µM, first compound 0.00316 µM): 70.6% | viability, T/C (second compound 0.1 µM, first compound 0.01 µM): 73.7% | viability, T/C [3]: 84.9% | viability, T/C [4]: 76.8% | viability, T/C (second compound 0.316 µM, first compound 0.000316 µM): 71.1% | viability, T/C (second compound 0.316 µM, first compound 0.001 µM): 65.2% | viability, T/C (second compound 0.316 µM, first compound 0.00316 µM): 61.7% | viability, T/C (second compound 0.316 µM, first compound 0.01 µM): 62.6% | viability, T/C [5]: 76.3% | viability, T/C [6]: 60.9% | viability, T/C (second compound 1 µM, first compound 0.000316 µM): 55.7% | viability, T/C (second compound 1 µM, first compound 0.001 µM): 50.2% | viability, T/C (second compound 1 µM, first compound 0.00316 µM): 55.9% | viability, T/C (second compound 1 µM, first compound 0.01 µM): 56.6% | viability, T/C [7]: 63.6% | viability, T/C [8]: 60.8%

IC50 (second compound 0.0316 µM): > 10000 nM | IC50 (second compound 0.1 µM): > 10000 nM | IC50 (second compound 0.316 µM): > 10000 nM | IC50 (second compound 1 µM): > 10000 nM | IC50 (second compound 3.16 µM): 1560 nM | IC50 (second compound 10 µM): 276 nM
Compound: Cn1nccc1Nc1nccc(-c2ccn(C(CO)c3ccc(Cl)c(F)c3)c(=O)c2)n1 (centres undefined) + Cc1nc(NC(=O)N2CCCC2C(N)=O)sc1-c1ccnc(C(C)(C)C(F)(F)F)c1
viability, T/C [1]: 88.2% | viability, T/C [2]: 79.8% | viability, T/C (second compound 0.0316 µM, first compound 0.316 µM): 72.2% | viability, T/C (second compound 0.0316 µM, first compound 1 µM): 92% | viability, T/C (second compound 0.0316 µM, first compound 3.16 µM): 95.7% | viability, T/C (second compound 0.0316 µM, first compound 10 µM): 101% | viability, T/C [3]: 68.3% | viability, T/C [4]: 68.6% | viability, T/C (second compound 0.1 µM, first compound 0.316 µM): 78.5% | viability, T/C (second compound 0.1 µM, first compound 1 µM): 81.4% | viability, T/C (second compound 0.1 µM, first compound 3.16 µM): 108% | viability, T/C (second compound 0.1 µM, first compound 10 µM): 83.2% | viability, T/C [5]: 90.1% | viability, T/C [6]: 72.8% | viability, T/C (second compound 0.316 µM, first compound 0.316 µM): 74% | viability, T/C (second compound 0.316 µM, first compound 1 µM): 91.9% | viability, T/C (second compound 0.316 µM, first compound 3.16 µM): 96.3% | viability, T/C (second compound 0.316 µM, first compound 10 µM): 81.9% | viability, T/C [7]: 82.9% | viability, T/C [8]: 79% | viability, T/C (second compound 1 µM, first compound 0.316 µM): 65.5% | viability, T/C (second compound 1 µM, first compound 1 µM): 74.9% | viability, T/C (second compound 1 µM, first compound 3.16 µM): 76.3% | viability, T/C (second compound 1 µM, first compound 10 µM): 52.3% | viability, T/C (second compound 3.16 µM, first compound 0.0316 µM): 80.5% | viability, T/C (second compound 3.16 µM, first compound 0.1 µM): 61.6% | viability, T/C (second compound 3.16 µM, first compound 0.316 µM): 65% | viability, T/C (second compound 3.16 µM, first compound 1 µM): 54.6% | viability, T/C (second compound 3.16 µM, first compound 3.16 µM): 44.2% | viability, T/C (second compound 3.16 µM, first compound 10 µM): 37.3% | viability, T/C (second compound 10 µM, first compound 0.0316 µM): 66.4% | viability, T/C (second compound 10 µM, first compound 0.1 µM): 58.6% | viability, T/C (second compound 10 µM, first compound 0.316 µM): 47.8% | viability, T/C (second compound 10 µM, first compound 1 µM): 37.8% | viability, T/C (second compound 10 µM, first compound 3.16 µM): 19.2% | viability, T/C (second compound 10 µM, first compound 10 µM): 5.96%
